Source: ChEMBL document CHEMBL5518186, “Discovery of the cereblon-recruiting tubulin PROTACs effective in overcoming Taxol resistance in vitro and in vivo” (Eur J Med Chem, 2024)
Calls of active or inactive are those of the source. The rule behind the calls is not given here.

Tests used:
[1] = Resistance index, ratio of IC50 for human MCF7/Taxol cells to IC50 for human MCF7 cells; type: functional
HepG2 [2] = test: Induction of DNA damage in human HepG2 cells assessed as gamma-H2AX level; type: functional, cell-based
A549 [3] = test: Induction of cell cycle arrest in human A549 cells assessed as accumulation of cells at G2/M phase at 0.05 uM incubated for 24 hrs by PI staining based flow cytometry analysis (reference value: 31.86%); type: functional
A549 [4] = test: Antitumor activity against human A549 cells xenografted in nude mouse assessed as decrease in tumor weight at 15 mg/kg, ip administered once every 2 days for 23 days by Vernier caliper method; type: functional, organism-based; conditions: time 23.0 day
[5] = molecular target: T1, Protein cereblon-alpha tubulin (Homo sapiens) (UniProt P0DPH7+P68366+Q71U36+P68363+Q9BQE3+Q6PEY2+A6NHL2+Q9NY65+Q96SW2); test: Protac activity at CRBN/alpha-tubulin in human A549/Taxol cells assessed as reduction in alpha-tubulin level at 0.25 uM pretreated with CA-4 for 2 hrs followed by compound addition and measured after 48 hrs by immunoblotting analysis; type: cell-based
[6] = molecular target: T1, Protein cereblon-alpha tubulin (Homo sapiens); test: Protac activity at CRBN/alpha-tubulin in human MGC-803 cells assessed as reduction in alpha-tubulin level at 10 to 1000 nM incubated for 48 hrs by immunoblotting analysis; type: cell-based; conditions: dose 10-1000 nM
A549/TR [7] = test: Induction of cell cycle arrest in human A549/Taxol cells assessed as accumulation of cells at G0/G1 phase at 0.01 uM incubated for 24 hrs by PI staining based flow cytometry analysis (reference value: 77.86%); type: functional
A549 [8] = test: Induction of cell cycle arrest in human A549 cells assessed as accumulation of cells at S phase at 0.05 uM incubated for 24 hrs by PI staining based flow cytometry analysis (reference value: 1.39%); type: functional
HUVEC [9] = test: Antiangiogenic activity in HUVECs assessed as reduction in cord formation at 2.5 nM incubated for 6 to 8 hrs by inverted microscopic analysis; type: functional, cell-based; conditions: Homo sapiens, time 6-8 hrs
A549/TR [10] = test: Induction of cell cycle arrest in human A549/Taxol cells assessed as accumulation of cells at S phase at 0.002 uM incubated for 24 hrs by PI staining based flow cytometry analysis (reference value: 2.85%); type: functional
[11] = molecular target: T1, Protein cereblon-alpha tubulin (Homo sapiens); test: Protac activity at CRBN/alpha-tubulin in human HepG2 cells assessed as reduction in alpha-tubulin level at 10 to 1000 nM incubated for 48 hrs by immunoblotting analysis; type: cell-based; conditions: dose 10-1000 nM
[12] = molecular target: T2, Protein cereblon/Tubulin beta-3 chain (Homo sapiens, UniProt Q13509+Q96SW2); test: Protac activity at CRBN/beta3-tubulin in human MGC-803 cells assessed as reduction in beta3-tubulin level at 10 to 1000 nM incubated for 48 hrs by immunoblotting analysis; type: cell-based; conditions: dose 10-1000 nM
Target sequence in this assay (Q13509 whole entry, looked up): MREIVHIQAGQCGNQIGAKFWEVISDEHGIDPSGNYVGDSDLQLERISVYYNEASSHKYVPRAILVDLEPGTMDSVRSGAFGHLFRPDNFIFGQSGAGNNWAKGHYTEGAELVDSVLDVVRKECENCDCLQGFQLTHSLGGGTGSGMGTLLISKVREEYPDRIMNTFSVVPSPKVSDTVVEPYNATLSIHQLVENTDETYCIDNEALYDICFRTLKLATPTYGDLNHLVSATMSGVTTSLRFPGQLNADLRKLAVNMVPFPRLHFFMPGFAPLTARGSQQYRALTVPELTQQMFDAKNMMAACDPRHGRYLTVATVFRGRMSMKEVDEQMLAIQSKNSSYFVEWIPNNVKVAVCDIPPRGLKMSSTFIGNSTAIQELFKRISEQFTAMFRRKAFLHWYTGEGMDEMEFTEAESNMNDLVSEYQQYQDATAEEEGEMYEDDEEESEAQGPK
Target sequence in this assay (Q96SW2 whole entry, looked up): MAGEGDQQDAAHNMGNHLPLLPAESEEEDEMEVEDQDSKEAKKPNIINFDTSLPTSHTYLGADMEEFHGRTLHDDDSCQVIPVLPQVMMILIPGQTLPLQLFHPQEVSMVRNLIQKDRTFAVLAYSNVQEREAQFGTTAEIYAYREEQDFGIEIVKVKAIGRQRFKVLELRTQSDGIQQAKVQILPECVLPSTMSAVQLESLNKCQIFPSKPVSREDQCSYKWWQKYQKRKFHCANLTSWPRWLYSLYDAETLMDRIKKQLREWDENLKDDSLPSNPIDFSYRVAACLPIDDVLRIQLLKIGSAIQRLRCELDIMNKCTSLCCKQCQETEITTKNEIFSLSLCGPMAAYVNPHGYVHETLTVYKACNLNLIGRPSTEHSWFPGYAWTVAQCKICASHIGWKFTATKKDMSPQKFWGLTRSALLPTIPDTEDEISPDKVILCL

[13] = Inhibition of cell growth in human MCF7/Taxol cells incubated for 72 hrs by SRB method; type: functional, cell-based
HUVEC [14] = test: Antiangiogenic activity in HUVECs assessed as reduction in tube length at 2.5 nM incubated for 6 to 8 hrs by inverted microscopic analysis; type: functional, cell-based; conditions: Homo sapiens, time 6-8 hrs
[15] = molecular target: Protein cereblon-alpha tubulin; test: (§1) Protac activity at CRBN/alpha-tubulin in human A549/Taxol cells assessed as reduction in alpha-tubulin level incubated for 48 hrs by immunoblotting analysis; type: cell-based
[16] = molecular target: T1, Protein cereblon-alpha tubulin (Homo sapiens); test: as §1; type: cell-based
A549/TR [17] = test: Induction of cell cycle arrest in human A549/Taxol cells assessed as accumulation of cells at G0/G1 phase at 0.05 uM incubated for 24 hrs by PI staining based flow cytometry analysis (reference value: 77.86%); type: functional
[18] = molecular target: T2, Protein cereblon/Tubulin beta-3 chain; test: Protac activity at CRBN/beta3-tubulin in human A549/Taxol cells assessed as reduction in beta3-tubulin level incubated for 48 hrs by immunoblotting analysis; type: cell-based
[19] = molecular target: T3, Protein cereblon/Tubulin beta (Homo sapiens) (UniProt P68371+Q9H4B7+Q13509+P04350+Q3ZCM7+P07437+Q13885+Q9BVA1+Q9BUF5+Q96SW2+A6NNZ2); test: Protac activity at CRBN/beta-tubulin in human MGC-803 cells assessed as reduction in beta-tubulin level at 10 to 1000 nM incubated for 48 hrs by immunoblotting analysis; type: cell-based; conditions: dose 10-1000 nM
MCF7 = test: Inhibition of cell growth in human MCF7 cells incubated for 72 hrs by SRB method; type: functional, cell-based; conditions: MCF7, 72 h
HepG2 [20] = test: Inhibition of cell proliferation in human HepG2 cells; type: functional, cell-based
[21] = Toxicity in nude mouse xenografted with human A549/Taxol cells assessed as body weight loss at 15 mg/kg, ip administered once every 2 days for 23 days and measured every 3 days; type: organism-based, A549/TR; conditions: in vivo, 552 h, time 23 day
[22] = Resistance index, ratio of IC50 for human A549/Taxol cells to IC50 for human A549 cells; type: functional
HepG2 [23] = test: Inhibition of cell migration in human HepG2 cells; type: functional, cell-based
[24] = molecular target: Protein cereblon-alpha tubulin; test: (§2) Protac activity at CRBN/alpha-tubulin in human A549 cells assessed as reduction in alpha-tubulin level incubated for 48 hrs by immunoblotting analysis; type: cell-based
[25] = molecular target: T1, Protein cereblon-alpha tubulin (Homo sapiens); test: as §2; type: cell-based
A549/TR [26] = test: Inhibition of cell growth in human A549/Taxol cells incubated for 72 hrs by SRB method; type: functional, cell-based
[27] = molecular target: T1, Protein cereblon-alpha tubulin (Homo sapiens); test: Protac activity at CRBN/alpha-tubulin in human A549 cells assessed as reduction in alpha-tubulin level at 0.25 uM pretreated for 48 hrs followed by compound washout and measured upto 24 hrs by immunoblotting analysis; type: cell-based
[28] = molecular target: T3, Protein cereblon/Tubulin beta (Homo sapiens); test: Protac activity at CRBN/beta-tubulin in human A549 cells assessed as reduction in beta-tubulin level at 0.25 uM pretreated with pomalidomide for 2 hrs followed by compound addition and measured after 24 hrs by immunoblotting analysis; type: cell-based
[29] = molecular target: T3, Protein cereblon/Tubulin beta (Homo sapiens); test: (§3) Protac activity at CRBN/beta-tubulin in human A549/Taxol cells assessed as reduction in beta-tubulin level incubated for 48 hrs by immunoblotting analysis; type: cell-based
[30] = molecular target: Protein cereblon/Tubulin beta; test: as §3; type: cell-based
A549 [31] = test: Induction of apoptosis in human A549 cells assessed as increase in apoptotic rate at 0.01 uM incubated for 48 hrs by Annexin V-FITC/PI staining based flow cytometry analysis (reference value: 1.3%); type: functional
[32] = molecular target: T2, Protein cereblon/Tubulin beta-3 chain; test: Protac activity at CRBN/beta3-tubulin in human A549/Taxol cells assessed as reduction in beta3-tubulin level at 0.25 uM pretreated with MG-132 followed by compound addition and measured after 48 hrs by immunoblotting analysis; type: cell-based
Target sequence in this assay (Q13509 whole entry, looked up): as the sequence (Q13509 whole entry, looked up) above
Target sequence in this assay (Q96SW2 whole entry, looked up): as the sequence (Q96SW2 whole entry, looked up) above

A549 [33] = test: Inhibition of colony formation in human A549 cells incubated for 24 hrs followed by media replacement at every 3 days for 14 days by crystal violet staining based assay; type: functional, cell-based; conditions: dose 2-50 nM, time 14.0 day
[34] = Toxicity in nude mouse xenografted with human A549 cells assessed as body weight loss at 15 mg/kg, ip administered once every 2 days for 23 days and measured every 3 days; type: organism-based; conditions: in vivo, 552 h, time 23 day
A549 [35] = test: Induction of cell cycle arrest in human A549 cells assessed as accumulation of cells at S phase at 0.002 uM incubated for 24 hrs by PI staining based flow cytometry analysis (reference value: 1.39%); type: functional
A549/TR [36] = test: Induction of cell cycle arrest in human A549/Taxol cells assessed as accumulation of cells at S phase at 0.05 uM incubated for 24 hrs by PI staining based flow cytometry analysis (reference value: 2.85%); type: functional

Activity [5]: inactive | Activity [6]: Active | Activity [11]: Active | Activity [12]: Active | DC50 [15]: 32 nM | Activity [16]: Dose-Dependent Effect | Activity [18]: Dose-Dependent Effect | DC50 [18]: 5 nM | Activity [19]: Active | IC50 (MCF7): 12 nM | DC50 [24]: 296 nM | Activity [25]: Dose-Dependent Effect | IC50 (A549/TR [26]): 5 nM | Activity [27]: Active | Activity [28]: inactive | Activity [29]: Dose-Dependent Effect | DC50 [30]: 972 nM | Activity [32]: inactive
SMILES: COc1ccc(/C=C\c2cc(OC)c(OC)c(OC)c2)cc1OC(=O)CCCNc1cccc2c1C(=O)N(C1CCC(=O)NC1=O)C2=O (centres undefined)
Ratio IC50 [1]: 0.5 | Activity (HepG2 [2]): Active | Activity (A549 [3]): 73.41% | Activity (A549 [4]): Active | Activity (A549/TR [7]): 26.79% | Activity (A549 [8]): 16.44% | Activity (HUVEC [9]): Active | Activity (A549/TR [10]): 7.68% | IC50 [13]: 6 nM | Activity (HUVEC [14]): Active | Activity (A549/TR [17]): 30% | inhibition (HepG2 [20]): Active | Activity [21]: Non-Toxic | Ratio IC50 [22]: 0.5 | inhibition (HepG2 [23]): Dose-Dependent Effect | inhibition (A549/TR [26]): Dose-Dependent Effect | Activity (A549 [31]): 23.1% | inhibition (A549 [33]): Dose-Dependent Effect | Activity [34]: Non-Toxic | Activity (A549 [35]): 5.65% | Activity (A549/TR [36]): 3.85%
